Results on 16 molecules are retold here after publication PMC4130903 (Bioorganic & medicinal chemistry letters, 2014).

Read-outs that look alike come from different tables or passages of the source.

For test [1], the target named is T1, NTSR1 (Homo sapiens, UniProt P30989). The test is classed as cell-based. To be noted: for NTSR1 activity (in words): Ca2+ mobilization assay; for Emax: % of the response obtained with the NT(8–13) peptide, average ± SEM, n = 4. For orientation: A change in cytosolic calcium serves as a functional read-out for many receptors and channels.
T1 sequence (P30989 whole entry, species assumed): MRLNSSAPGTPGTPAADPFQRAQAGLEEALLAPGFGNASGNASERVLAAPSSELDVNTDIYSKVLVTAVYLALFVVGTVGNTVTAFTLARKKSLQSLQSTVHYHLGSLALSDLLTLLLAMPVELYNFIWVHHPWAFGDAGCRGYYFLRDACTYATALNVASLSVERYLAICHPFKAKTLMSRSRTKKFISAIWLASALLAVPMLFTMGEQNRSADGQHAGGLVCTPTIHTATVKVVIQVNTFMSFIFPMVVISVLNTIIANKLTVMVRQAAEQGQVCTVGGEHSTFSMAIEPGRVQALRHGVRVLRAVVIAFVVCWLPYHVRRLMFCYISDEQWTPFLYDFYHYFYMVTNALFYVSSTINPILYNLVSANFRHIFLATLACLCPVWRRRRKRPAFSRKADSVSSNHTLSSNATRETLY
In test [2] the target is T1, NTSR1. Nature of the test: Ca2+ assay in the presence and absence of antagonist 5. The test is classed as cell-based. Conditions: in the presence of antagonist 5 (SR 48692); Figure S1.
For test [3], the target named is T1, NTSR1. Conditions: NTSR1 antagonists; cited from earlier work.
Test [4] concerns the target T1, NTSR1. To be noted: Wyeth compound 1, literature value; cited from earlier work.

With `COC(=O)[C@H](CC(C)C)NC(=O)Cn1ccc2cc(-c3cnc4ccccc4c3)ccc21` [Compound 25], in test [1], the “NTSR1 activity (in words)” value is given as “loss of activity”.
`CC(C)C[C@H](NC(=O)Cn1ccc2cc(-c3cnc4ccccc4c3)ccc21)C(=O)O` [Compound 8]: the Emax (commonly the maximal effect, on the per cent scale that the assay sets) in test [1] came to 100%. For the same molecule, the “Potency improvement compared to parent compound 1” value in test [1] (EC50 versus compound 1 (EC50 = 178 μM)) is ~ 90 fold. Also, the “NTSR1 stimulatory activity in the presence of antagonist 5” value (from here on “NTSR1 stimulatory activity”) in test [2] is “abolished”.
Consider `COc1cccc(OC)c1-c1cc(C(=O)NC2(C(=O)O)C3CC4CC(C3)CC2C4)nn1-c1ccnc2cc(Cl)ccc12` (stereo not drawn) [Compound 5], for which, in test [3], the Binding affinity entry is recorded as “low nanomolar range”.
For the molecule `CC(C)C[C@@H](NC(=O)Cn1ccc2cc(NS(=O)(=O)c3cccc4cccnc34)ccc21)C(=O)O` [Compound 1, reference compound], the EC50 (in general, the concentration at which the effect is half-maximal) in test [1] was more than 100 µM. For the same molecule, the Emax in test [4] is on record as 17%.
Turning to `O=C(Cn1ccc2cc(-c3cnc4ccccc4c3)ccc21)N[C@@H](Cc1ccccc1)C(=O)O` [Compound 31], a half-maximal response in test [1] (EC50) required 4 µM.
Consider `CC(C)C[C@H](NC(=O)Cn1ccc2ccc(-c3cccc4ccccc34)cc21)C(=O)O` [Compound 40], for which, in test [2], the “NTSR1 stimulatory activity” value was “abolished”.
The same measure, in the same setting: to `CC(C)C[C@H](NC(=O)Cn1ccc2cc(NS(=O)(=O)c3cccc4cccnc34)ccc21)C(=O)O` [Compound 7] belongs “abolished”; to `CC(C)C[C@H](NC(=O)Cn1ccc2ccc(-c3cnc4ccccc4c3)cc21)C(=O)O` [Compound 39], “abolished”.
On to `CC(C)C[C@@H](NC(=O)Cn1ccc2cc(-c3cnc4ccccc4c3)ccc21)C(=O)O` [Compound 32], for which the “NTSR1 activity (in words)” value in test [1] is “no activity”.
For `COc1cccc(OC)c1-c1cc(C(=O)NC2(C(=O)O)C3CC4CC(C3)CC2C4)nn1-c1ccc(C(=O)N(C)CCCN(C)C)cc1C(C)C` (stereo not drawn) [Compound 6], the Binding affinity entry in test [3] was “low nanomolar range”.
Turning to `CC(C)C[C@H](NC(=O)Cn1ccc2cc(-c3cccc4ccccc34)ccc21)C(=O)O` [Compound 17], in test [1], the EC50 amounted to 3 µM and the Emax was determined as 100%. Also, in test [2], the “NTSR1 stimulatory activity” value is given as “abolished”.
Consider `CC(C)C[C@H](NC(=O)Cn1ccc2ccccc21)C(=O)O` [Compound 12], for which the “NTSR1 stimulatory activity” value in test [2] is listed as “abolished”.
Consider `COC(=O)[C@H](CC(C)C)NC(=O)Cn1ccc2cc(-c3cccc4ccccc34)ccc21` [Compound 34], for which the “NTSR1 activity (in words)” value in test [1] was “abolished activity”.
Turning to `CC(C)C[C@H](NC(=O)Cn1ccc2cc(-c3cnc4ccccc4c3)ccc21)c1nn[nH]n1` [Compound 27], in test [2], the “NTSR1 stimulatory activity” value is “abolished”.
As to `CC(C)C[C@@H](CO)NC(=O)Cn1ccc2cc(-c3cnc4ccccc4c3)ccc21` [Compound 26], in test [1], the “NTSR1 activity (in words)” value was “loss of activity”.
Turning to `CC(C)C[C@H](NC(=O)Cn1ccc2cc(-c3cncc4ccccc34)ccc21)C(=O)O` [Compound 21], in test [2], the “NTSR1 stimulatory activity” value is listed as “abolished”.
